{"source": "paper PMC7343802", "about": "“The development of the dog heartworm is highly sensitive to sterols which activate the orthologue of the nuclear receptor DAF-12” (Scientific Reports, 2020)", "key": {"[1]": {"target": "CelDAF-12 (Caenorhabditis elegans, UniProt G5EFF5)", "sequence (G5EFF5 516-753)": "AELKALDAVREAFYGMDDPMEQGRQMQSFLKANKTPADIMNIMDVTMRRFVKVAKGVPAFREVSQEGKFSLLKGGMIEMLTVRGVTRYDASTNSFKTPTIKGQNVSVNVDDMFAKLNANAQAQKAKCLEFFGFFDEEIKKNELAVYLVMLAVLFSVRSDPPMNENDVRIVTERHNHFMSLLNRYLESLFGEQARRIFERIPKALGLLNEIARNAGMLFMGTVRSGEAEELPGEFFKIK", "assay": "cell-based"}, "[2]": {"test_system": "D. immitis iL3 larvae", "assay": "in vitro molting of infective third-stage larvae (iL3) into L4", "type": "cell-based, Dirofilaria immitis"}}, "data": [{"smiles": "CC(CCCC(C)C1CCC2C3=CCC4CC(=O)CCC4(C)C3CCC21C)C(=O)O", "note": "[Δ7-DA, (25S)-Δ7-dafachronic acid]", "values": [{"measurement": "EC50", "setting": "[1]", "value": 16, "unit": "nM"}, {"measurement": "number of free cuticles (completed molt, L4) versus DMSO control", "setting": "[2]", "value": "significantly higher"}, {"measurement": "start of the molting process (day in culture)", "setting": "[2]", "value": "3 to 4", "unit": "days"}, {"measurement": "overall effect on molting of iL3 into L4", "setting": "[2]; 10 µM", "value": "induced a rapid development of iL3 into L4"}, {"measurement": "percentage of iL3 which had initiated but not completed the molt, compared to DMSO control", "setting": "[2]; 10 µM, day 5 or 6", "value": "low percentage"}]}]}
